Assay results: patent publication US6413912B2, “Azoline derivatives” (Syngenta Crop Protection, Inc., priority 1997, dated 2002)

What was measured:
Dermanyssus gallinae = assay: In vitro effect on Dermanyssus gallinae (Example B10); settings: ranking among test substances
Protocol: Example B10: In vitro effect on Dermanyssus gallinae
Ten engorged female mites of the genus Dermanyssus gallinae fixed on a plastic adhesive film are brought into contact with 50 μl of an aqueous suspension or emulsion of the test substance. The test is carried out with concentrations of 32, 10, 3.2, 1.0, 0.32 to 0.0001 ppm. After drying, the film is stuck onto a glass disc. This creates a kind of air bubble around each mite, the lower surface of which is formed by the glass disc and the upper surface by a bulging of the adhesive film. This bubble contains sufficient air for the mite to avoid suffocating. After 5 days, the effect of the test substance is evaluated with the aid of a stereomicroscope by assessing the effect on mortality, egg deposition, egg quality, hatching rate, pupation rate, and development of protonymphs according to the following 4 criteria:
1. if 9 to 10 mites are dead, this indicates a lethal effect;
3. if 2 or more mites survive and produce eggs, but no larvae hatch from these eggs and no protonymphs develop, this indicates a development-inhibiting effect;
4. if 2 or more mites survive and lay the usual number of normal eggs, from which larvae hatch and develop into protonymphs, this indicates no activity.

Tetranychus urticae [1] = assay: Ovicidal effect on Tetranychus urticae (Example B7); format: in vivo; settings: bean plants colonized with eggs sprayed with 400 ppm, 6 days at 25° C.
Protocol: Example B7: Ovicidal effect on Tetranychus urticae
Young bean plants are inoculated with females of Tetranychus urticae, which are removed again after 24 hours. The plants colonized with eggs are sprayed with an aqueous emulsion containing 400 ppm of active ingredient. The plants are incubated for 6 days at 25° C. and then evaluated. The percentage reduction of the population (% response) is determined by comparing the number of dead eggs, larvae, and adults on the treated plants with those on the untreated plants.

Tetranychus urticae [2] = assay: Effect on Tetranychus urticae (Example B3); format: in vivo; settings: bean plants, mixed population, sprayed with 400 ppm, 6 days at 25° C.
Protocol: Example B3: Effect on Tetranychus urticae
Young bean plants are inoculated with a mixed population of Tetranychus urticae and, one day later, are sprayed with an aqueous emulsion containing 400 ppm of active ingredient. The plants are incubated for 6 days at 25° C. and then evaluated. The percentage reduction of the population (% response) is determined by comparing the number of dead eggs, larvae, and adults on the treated plants with those on the untreated plants. The instantly claimed compounds show good efficacy against Tetranychus urticae in this test.

Heliothis virescens [3] = assay: Ovocidal/larvicidal effect on Heliothis virescens (Example B6); format: in vivo; settings: eggs on cotton sprayed with 400 ppm, after 8 days
Description: Example B6: Ovocidal/larvicidal effect on Heliothis virescens
Eggs of Heliothis virescens laid on cotton are sprayed with an aqueous emulsion containing 400 ppm of active ingredient. After 8 days, the percentage hatching rate of the eggs and the survival rate of the caterpillars are compared with those for untreated controls (% reduction of population)

Boophilus microplus = assay: In vitro effect on Boophilus microplus (Example B9); settings: ranking among test substances
Protocol: Example B9: In vitro effect on Boophilus microplus
Four test series each of 10 engorged female adults of Boophilus microplus are stuck to a plastic plate and covered for 1 hour with a wad of cottonwool soaked with an aqueous suspension or emulsion of the test substance. The test is carried out with concentrations of 100, 32, 10, 3.2, 1.0 and 0.32 ppm. The wad of cottonwool is then removed, and the ticks are incubated for 28 days for the eggs to be laid. The effect on Boophilus microplus is assessed according to the following 5 criteria:
1. Number of dead females (immobile with black discoloration) before egg deposition;
2. Number of ticks surviving for several days, but no eggs laid;
3. Number of cases in which eggs are laid, but nothing is hatched;
5. […] The compounds of formula (I) in this test show the effect described under point 4. […] Even at 1 ppm, a 60 to 90% suppression of the hatching rate is observed.
This test is carried out with both the BIARRA and the ULAM strain, and the results in both cases are identical.

[4] = tested on: Diabrotica balteata larvae; assay: Effect on Diabrotica balteata larvae (Example B2); format: in vivo; settings: corn seedlings sprayed with 400 ppm, second stage larvae, six days later
Protocol: Example B2: Effect on Diabrotica balteata larvae
Corn seedlings are sprayed with an aqueous emulsion containing 400 ppm of active ingredient. After drying of the spray deposit, the corn seedlings are inoculated with 10 second stage larvae of Diabrotica balteata and transferred to a plastic container. Six days later they are evaluated. The percentage reduction of the population (% response) is determined by comparing the number of dead larvae on the treated plants with those on the untreated plants.

[5] = tested on: Heliothis virescens caterpillars; assay: Effect on Heliothis virescens caterpillars (Example B4); format: in vivo; settings: soya plants sprayed with 400 ppm, first stage caterpillars, six days later
Protocol: Example B4: Effect on Heliothis virescens caterpillars
Young soya plants are sprayed with an aqueous emulsion containing 400 ppm of active ingredient. After drying of the spray deposit, the soya plants are inoculated with 10 first stage caterpillars of Heliothis virescens and transferred to a plastic container. Six days later they are evaluated. The percentage reduction of the population (% response) is determined by comparing the number of dead caterpillars and the extent of feeding damage on the treated plants with those on the untreated plants.

[6] = tested on: Plutella xylostella caterpillars; assay: Effect on Plutella xylostella caterpillars (Example B5); format: in vivo; settings: cabbage plants sprayed with 400 ppm, third stage caterpillars, three days later
Protocol: Example B5: Effect on Plutella xylostella caterpillars
Young cabbage plants are sprayed with an aqueous emulsion containing 400 ppm of active ingredient. After drying of the spray deposit, the cabbage plants are inoculated with 10 third stage caterpillars of Plutella xylostella and transferred to a plastic container. Three days later they are evaluated. The percentage reduction of the population (% response) is determined by comparing the number of dead caterpillars and the extent of feeding damage on the treated plants with those on the untreated plants.

[7] = tested on: Panonychus ulmi (resistant to organophosphates und carbaryl); assay: Effect on Panonychus ulmi (Example B8); format: in vivo; settings: apple seedlings sprayed with 400 ppm, after 14 days
Protocol: Example B8: Effect on Panonychus ulmi (resistant to organophosphates und carbaryl)
Apple seedlings are inoculated with adult females of Panonychus ulmi. After seven days, the infected plants are sprayed with an aqueous emulsion containing 400 ppm of the test compound until they are dripping wet, and cultivated in the greenhouse. After 14 days, they are evaluated. The percentage reduction of the population (% response) is determined by comparing the number of dead mites on the treated plants with those on the untreated plants.

Heliothis virescens [8] = assay: Ovicidal effect on Heliothis virescens (Example B1); format: in vivo; settings: eggs immersed in 400 ppm test solution, after 6 days, vs untreated controls
Protocol: Example B1: Ovicidal effect on Heliothis virescens
Eggs of Heliothis virescens laid on filter paper are immersed for a short time in an acetonic aqueous test solution containing 400 ppm of the active ingredient to be tested. After drying of the test solution, the eggs are incubated in Petri dishes. After 6 days, the percentage hatching rate of the eggs is compared with that for untreated controls (% reduction in hatching rate).

Question: `Fc1cccc(F)c1C1=NC(c2ccc(-c3ccc(C(F)(F)F)cc3)cc2)CO1` (stereo not shown) [Example H1-5, 2-(2,6-Difluorophenyl)-4-(4′-trifluoromethylbiphenyl-4-yl)-4,5-dihydro-oxazole] was tested. Which “activity compared with the other test substances” value (Dermanyssus gallinae) did it give?
Answer: The value was “most active test substance”.

Question: And the “percentage reduction of the population (% response)” value (“percentage reduction … (% response)” for short) (Tetranychus urticae [1])?
Answer: The value was “more than 80%”.

Question: What about the “percentage reduction … (% response)” value (Tetranychus urticae [2]) of the same compound?
Answer: Its value is “more than 80%”.

Question: What about the “% reduction of population (hatching rate of eggs and survival rate of caterpillars)” value (Heliothis virescens [3]) of the same compound?
Answer: The value was “more than 80%”.

Question: What about the “activity compared with the other test substances” value (Boophilus microplus) of the same compound?
Answer: The value was “most active test substance”.

Question: What about the “percentage reduction … (% response)” value [4] of the same compound?
Answer: Its value is “more than 80%”.

Question: And the “percentage reduction … (% response)” value [5]?
Answer: Its value is “more than 80%”.

Question: What about the “percentage reduction … (% response)” value [6] of the same compound?
Answer: The value was “more than 80%”.

Question: And the “percentage reduction … (% response)” value [7]?
Answer: Its value is “more than 80%”.

Question: What about the “% reduction in hatching rate” value (Heliothis virescens [8]) of the same compound?
Answer: Its value is “more than 80%”.
